# Like-named read-outs stand apart in the source and are kept apart here. Ends that are not written are not given here.
# Legend:
# [1] = tested on: red blood cells of grass carp; assay: Hemolytic toxicity test on erythrocytes; type: cell-based; details: concentration 64 μM or above
# Description: (§1) (1) 1 ml of blood of fresh grass carp and BALB/c mice are collected respectively and stored with heparin sodium for anticoagulation.
# (§2) (2) The fresh plasma solutions obtained in step (1) are centrifuged under 1000 g for 5 minutes, the supernatant is discarded, and red blood cells are collected.
# (§3) (3) The collected red blood cells are washed 3 times with PBS buffer, centrifuged under 1000 g for 5 minutes each time, and finally resuspended in 5 ml of PBS buffer.
# (§4) 50 μl PBS+50 μl red blood cell suspension is used as a negative control, and 50 μl of red blood cell suspension+50 μl of 0.2% Triton X-100 is used as a positive control.
# (§5) (6) After 1 hour, the 96-well plate is taken out, and centrifuged under 1000 g for 5 minutes at 4° C.
# (§6) (7) The supernatant of the above-mentioned centrifuged solutions is taken and placed on a clean 96-well plate again, and then absorbance is measured at 570 nm with a microplate reader.
# (§7) (8) The average values of all the groups are compared and analyzed. The test is repeated three times. Calculation formula: Hemolysis rate=(absorbance of experimental group−absorbance of negative group)/(absorbance of positive group−absorbance of negative group)×100%. (9)
# [2] = tested on: red blood cells of mice; assay: Hemolytic toxicity test on erythrocytes; type: cell-based, BALB/c mice; details: concentration 64 μM or above
# Description: as §1, §2, §3, §4, §5, §6, §7
# [3] = tested on: grass carp CIK cells; assay: Cytotoxicity test (MTT method); type: cell-based; details: final concentration 128 μM, 24 hours
# Description: (§8) Cytotoxicity test of the interferon-derived polypeptide on human HEK293T cells and grass carp CIK cells:
# (§9) The MTT method, also known as the MTT colorimetric method, is a method for measuring cell proliferation and cell survival rate. The detection principle is that the […] in the living cell mitochondria can reduce the exogenous MTT to a water-insoluble blue-purple crystalline Formazan which deposits in the cells, while the dead cells have no such function. DMSO can dissolve Formazan in the cells, and through measuring its absorbance by using an enzyme-linked immunosorbent detector at a wavelength of 492 nm, the number of living cells can be reflected indirectly. Within a certain range of the number of cells, the amount of the formed MTT crystal is proportional to the number of cells.
# (§10) (1) Cell preparation: A human HEK293T cell line and grass carp CIK cell line preserved in liquid nitrogen are resuscitated and cultured in DMEM containing 10% fetal bovine serum under the conditions of 37° C./28° C., 5% CO2, and saturated humidity. The culture solution is changed every other day, and the cell passage is carried out by trypsinization. When 80%-90% of the bottom of the flask is covered with cells, the cells are washed twice with PBS, 2 ml of 0.25% trypsin digestive juice is added, and the degree of digestion is observed under an inverted microscope; when most of the cells are rounded and the cells are in loose connection, it indicates moderate digestion and this process is about 3 minutes; the digestion is terminated by adding a DMEM or MEM medium containing fetal bovine serum, the digestive juice is poured off, and about 3 ml of the cell culture solution is added to thoroughly blow the cells to form a single cell suspension. Finally, the diluted cell suspension is added to a 96-well plate, and 50 μl of the diluted cell suspension is added to each well at a concentration of about 1×10^4 cells/well.
# (§11) The cell wells without the interferon-derived polypeptide are used as positive control, and the cell well with the interferon-derived polypeptide but without the cells are used as negative control, and the culture is further continued for 24 hours.
# (§12) (3) Reading: After culture for a certain period of time, […] (5 mg/ml) of MTT is directly added to each well, and after culture for 4 hours, 150 μl of DMSO is added and vibration is carried out for 10 minutes to dissolve the crystal, and the absorbance is then measured at 492 nm by the enzyme-linked immunosorbent detector. The test is repeated three times.
# (§13) Survival rate=(absorbance of experimental group−absorbance of negative group)/(absorbance of positive group−absorbance of negative group)×100%. (5)
# [4] = Toxicity of the drug to mice without bacterial infection (safe dose); type: in vivo; details: intraperitoneal injection, no bacterial infection
# Description: First, an appropriate drug treatment dose is selected through pre-tests, and an appropriate drug dose concentration is found through 3-5 different drug dose concentration groups. In addition, the toxicity of the drug to mice should be tested so as to preliminarily evaluate the safety of the drug, that is, in the absence of bacterial infection, only the mice are intraperitoneally injected with the interferon-derived polypeptide drug, and the safe dose range is <200 μg/head.
# [5] = tested on: human HEK293T cells; assay: Cytotoxicity test (MTT method); type: cell-based; details: 24 h, 128 µM
# Description: as §8, §9, §10, §11, §12, §13
# [6] = Cytotoxicity test (MTT method); type: cell-based
# Description: as §8, §9, §10, §11, §12, §13
# [7] = human, HEK293T cells, Survival rate of cells
molecule,measurement,setting,value
CC[C@H](C)[C@H](NC(=O)[C@H](CCCCN)NC(=O)[C@H](CCC(=O)O)NC(=O)[C@H](CCCCN)NC(=O)[C@H](CO)NC(=O)[C@H](CCCCN)NC(=O)[C@H](CCCNC(=N)N)NC(=O)[C@H](Cc1ccccc1)NC(=O)[C@H](Cc1ccccc1)NC(=O)[C@H](CC(=O)O)NC(=O)CNC(=O)[C@H](CC(C)C)NC(=O)[C@@H](N)CC(C)C)C(=O)NCC(=O)N[C@@H](CCCCN)C(=O)N[C@@H](CCC(=O)O)C(=O)N[C@@H](Cc1ccccc1)C(=O)N[C@@H](CCCCN)C(=O)N[C@@H](CCCNC(=N)N)C(=O)N[C@H](C(=O)N[C@H](C(=O)N[C@@H](CCC(N)=O)C(=O)N[C@@H](CCCNC(=N)N)C(=O)N[C@H](C(=O)N[C@@H](CCCCN)C(=O)N[C@@H](CC(=O)O)C(=O)N[C@@H](Cc1ccccc1)C(=O)N[C@@H](CC(C)C)C(=O)N[C@@H](CCCNC(=N)N)C(=O)N[C@@H](CC(N)=O)C(=O)N[C@@H](CC(C)C)C(=O)N[C@H](C(=O)N1CCC[C@H]1C(=O)N[C@@H](CCCNC(=N)N)C(=O)N[C@H](C(=O)N[C@@H](CCC(=O)O)C(=O)N[C@@H](CO)C(=O)O)[C@@H](C)O)C(C)C)[C@@H](C)CC)C(C)C)[C@@H](C)CC [LL37],hemolytic toxicity (in words),[1],obvious
same,hemolytic toxicity (in words),[2],obvious
same,Survival rate of cells,[3],15%
SYEKKINRHFKILKKNLKKK [Interferon-derived polypeptide],safe dose range,[4],< 200 μg/head
same,Survival rate of cells,[5],83%
same,"viability at 24 h, 8 µM","[6]; CIK cells, grass carp CIK, final concentration 8 μM, read-out: Survival rate of cells",95.4%
same,"viability at 24 h, 16 µM","[6]; CIK cells, grass carp CIK, final concentration 16 μM, read-out: Survival rate of cells",96.7%
same,"viability at 24 h, 32 µM","[6]; CIK cells, grass carp CIK, final concentration 32 μM, read-out: Survival rate of cells",95.2%
same,"viability at 24 h, 64 µM","[6]; CIK cells, grass carp CIK, final concentration 64 μM, read-out: Survival rate of cells",87%
same,"viability at 24 h, 128 µM","[6]; CIK cells, grass carp CIK, final concentration 128 μM, read-out: Survival rate of cells",> 80%
same,"viability at 24 h, 8 µM",[6]; [7],98.3%
same,"viability at 24 h, 16 µM",[6]; [7],97.2%
same,"viability at 24 h, 32 µM",[6]; [7],93%
same,"viability at 24 h, 64 µM",[6]; [7],89%
same,"viability at 24 h, 128 µM",[6]; [7],> 80%
same,Survival rate of cells,[3],81%

# Reference: patent US10577404B2, “Polypeptide derivatives from grass carp interferon and application thereof” (priority 2018, dated 2020)
